This is an account of results in US7745439B2, “Indene derivatives and process for the preparation thereof” (Korea Research Institute of Chemical Technology, priority 2004, dated 2010).

In one data set the target is T1, human PPARγ (Homo sapiens, UniProt P37231).
T1 construct: expressed in transfected cells; host or cells: NIH/3T3
T1 sequence (P37231 238-503 limits assumed): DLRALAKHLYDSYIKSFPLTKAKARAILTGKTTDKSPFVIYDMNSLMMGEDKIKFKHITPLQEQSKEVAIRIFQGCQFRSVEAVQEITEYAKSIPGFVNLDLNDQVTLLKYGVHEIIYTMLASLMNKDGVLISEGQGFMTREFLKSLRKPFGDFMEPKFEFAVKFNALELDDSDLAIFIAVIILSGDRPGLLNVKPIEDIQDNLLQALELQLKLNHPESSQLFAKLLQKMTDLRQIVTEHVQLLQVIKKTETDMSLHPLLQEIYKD
Kind of data set: PPARγ activation test (GAL-4/luciferase reporter in NIH/3T3 cell). To be noted: luciferase activity, 24 hrs incubation. In kind it is cell-based. The method, then:
The activity for PPARγ activation was examined as follows.
The vector fused with ligand binding domain of a human PPARγ gene and DNA binding site of a yeast GAL-4 gene, and luciferase reporter vector were simultaneously transfected in NIH/3T3 cell. The cells were cultured for 24 hrs. The solution containing the cells at a concentration of 2×10^4 cells/well was placed on a 96-well plate. Then, each of the test compounds of the present invention and the control group without test compounds was added thereto. After incubating for 24 hrs, the cells were subjected to lysis.

The test system of data set [1] is C57/BL6J mice. Description: Adverse side effects check (weight, heart weight, liver weight, GPT/GOT) in high fat diet C57/BL6J mice. To be noted: for GOT / GPT / Heart Weight / Liver Weight / Weight: high fat diet C57/BL6J mice.
Method: (§2) To check possible adverse side effects caused by the administration of the compound, the weight, heart weight and liver weight of each mouse were measured. GPT and GOT values were also calculated by employing a kit available in the market.
In data set [2] the test system is ob/ob mice. To be noted: relative to control. The method, then:
The effectiveness in lowering blood glucose level of the inventive compound was examined using ob/ob mice (male, 8-9 week old), a type 2 diabetes model animals which expresses signs of hyperglycemia and hyperinsulinemia, bred in house facilities of Korea Research Institute of Chemical Technology.
(§1) The resulting solution was intraperitoneally administered to the mice at a dose of 50 mg/kg, once a day for 5 days, or orally administered to the mice, at a dose of 100 mg/kg, twice a day for 14 days. Days 1, 3 and 5 were selected for intraperitoneal administration, and days 5, 10 and 14, for oral administration, to collect blood samples for measuring the blood glucose levels. […] Upon the completion of the oral administration for 14 days, the mice were fasted for 16 hrs to perform OGTT (Oral Glucose Tolerance Test) to determine the changes in insulin sensitivity induced by the oral administration. After administrating glucose to the mice at a dose of 2 g/kg orally, blood samples were collected at 0, 15, 30 60 and 120 minutes to measure blood glucose levels.

The subject of data set [3] is C57/BL6J mice.
Method: as §2
Data set [4] deals with ob/ob mice. To be noted: total amount of blood glucose over 120 minutes after glucose 2 g/kg orally, after 14 days oral administration. The method, then: as §1
In data set [5] the test system is C57/BL6J mice. To be noted: high fat diet C57/BL6J mice, after oral administration for 14 days once a day. As to the method:
as §1

[6] abbreviates: high fat diet C57/BL6J mice, oral administration for 14 days once a day.

Like-named read-outs stand apart in the source and are kept apart here.

On human PPARγ, `CCOC(=O)C1=C(c2ccccc2)c2ccc(OC)cc2C1(O)C(C)C` (centres unmarked) [Compound 3, 1-hydroxy-1-isopropyl-6-methoxy-3-phenyl-1H-indene-2-carboxylic acid ethyl ester] yielded an EC50 of 0.25 µM.

For the compound `CCOC(=O)C1=C(c2ccccc2)c2ccc(OC)cc2C1(C)O` (centres unmarked) [Compound 4, 1-hydroxy-6-methoxy-1-methyl-3-phenyl-1H-indene-2-carboxylic acid ethyl ester], the concentration for a half-maximal effect (EC50) at human PPARγ was found to be 0.23 µM. The EC50 values of the last two compounds are within 1.5-fold of each other.

`CCOC(=O)C1=C(c2ccccc2)c2ccc(OC)cc2C1(O)Cc1ccccc1` (centres unmarked) [Compound 5, 1-benzyl-1-hydroxy-6-methoxy-3-phenyl-1H-indene-2-carboxylic acid ethyl ester] yielded an EC50 at human PPARγ of 0.095 µM.

On to `CCOC(=O)C1=C(c2ccccc2)c2ccc(OC)cc2C1(O)C1CCCCC1` (centres unmarked) [Compound 6, 1-cyclohexyl-1-hydroxy-6-methoxy-3-phenyl-1H-indene-2-carboxylic acid ethyl ester], for which, at human PPARγ, the response was half-maximal at 0.05 µM (EC50).

Consider `CCOC(=O)C1=C(c2ccccc2)c2ccc(OCCCc3ccccc3)cc2C1(O)c1ccccc1` (centres unmarked) [Compound 7, 1-hydroxy-1,3-diphenyl-6-(3-phenyl-propoxy)-1H-indene-2-carboxylic acid ethyl ester], for which the EC50 on human PPARγ stood at 0.025 µM.

Take `CCOC(=O)C1=C(c2ccccc2)c2ccc(OCCN3CCOCC3)cc2C1(O)c1ccccc1` (centres unmarked) [Compound 8, 1-hydroxy-6-(2-morpholine-4-yl-ethoxy)-1,3-diphenyl-1H-indene-2-carboxylic acid ethyl ester]: the melting point lay within 121 to 123 °C. The EC50 at human PPARγ was 0.075 µM.

Regarding `CCOC(=O)C1=C(c2ccccc2)c2ccc(OCCc3ccccn3)cc2C1(O)c1ccccc1` (centres unmarked) [Compound 10, 1-hydroxy-1,3-diphenyl-6-(2-pyridine-2-yl-ethoxy)-1H-indene-2-carboxylic acid ethyl ester], the EC50 on human PPARγ was 0.15 µM. That is a sub-micromolar value.

Consider `N#CC1=C(c2ccccc2)c2ccc(OCCCc3ccccc3)cc2C1(O)c1ccccc1` (centres unmarked) [Compound 11, 1-hydroxy-1,3-diphenyl-6-(3-phenyl-propoxy)-1H-indene-2-carbonitrile], for which, at human PPARγ, the EC50 amounted to 0.1 µM. The EC50 values of the last two compounds are within 1.5-fold of each other.

On human PPARγ, `COc1ccc2c(c1)C(O)(Cc1ccccc1)C(C(=O)O)=C2c1ccccc1` (centres unmarked) [Compound 15, 1-benzyl-1-hydroxy-6-methoxy-3-phenyl-1H-indene-2-carboxylic acid] showed an EC50 of 0.23 µM.

`CCOC(=O)C1=C(c2ccccc2)c2ccc(OC)cc2C1OC` (centres unmarked) [Compound 18, 1,6-dimethoxy-3-phenyl-1H-indene-2-carboxylic acid ethyl ester] returned an EC50 on human PPARγ of 0.045 µM.

With `CCOC(=O)C1=C(c2ccccc2)c2ccc(OC)cc2C1OCC` (centres unmarked) [Compound 19, 1-ethoxy-6-methoxy-3-phenyl-1H-indene-2-carboxylic acid ethyl ester], the EC50 at human PPARγ was determined as 0.02 µM.

Compound `CCOC(=O)C1=C(c2ccccc2)c2ccc(OC)cc2C1NC(C)=O` (centres unmarked) [Compound 24, 1-acetylamino-6-methoxy-3-phenyl-1H-indene-2-carboxylic acid ethyl ester] came in with an EC50 at human PPARγ of 0.05 µM. This EC50 lies about 2.5-fold higher than the previous one.

On to `CCOC(=O)C1=C(c2ccccc2)c2ccc(OC)cc2C1NC(=O)CC` (centres unmarked) [Compound 25, 6-methoxy-3-phenyl-1-propionylamino-1H-indene-2-carboxylic acid ethyl ester], for which, at human PPARγ, the response was half-maximal at 0.012 µM (EC50).

Consider `CCOC(=O)C1=C(c2ccccc2)c2ccc(OCCCc3ccccc3)cc2C1NC(C)=O` (centres unmarked) [Compound 26, 1-acetylamino-3-phenyl-6-(3-phenyl-propoxy)-1H-indene-2-carboxylic acid ethyl ester], for which, at human PPARγ, the EC50 is 0.04 µM.

On human PPARγ, `CCOC(=O)C1=C(c2ccccc2)c2ccc(OC)cc2C1NC1CCCCC1` (centres unmarked) [Compound 32, 1-cyclohexyl amino-6-methoxy-3-phenyl-1H-indene-2-carboxylic acid ethyl ester] yielded an EC50 of 0.25 µM.

Consider `CN(CCOc1ccc(CC2SC(=O)NC2=O)cc1)c1ccccn1` (centres unmarked) [Rosiglitazone, reference compound], for which, in the data set on C57/BL6J mice [1], the GOT was 40 ± 7.1 karmen, the GPT is on record as 79 ± 8.3/ karmen, the “Heart Weight” value is 0.133 ± 0.004 g and the “Liver Weight” value was determined as 1.35 ± 0.14 g. In the data set on C57/BL6J mice [1], this compound had a Weight of 40 ± 1.6 g.

Turning to `CCOC(=O)C1=C(c2ccccc2)c2ccc(OCCN3CCOCC3)cc2C1(O)c1ccccc1` (centres unmarked) [The Inventive Compound, 1-hydroxy-6-(2-morpholine-4-yl-ethoxy)-1,3-diphenyl-1H-indene-2-carbo-xylic acid ethyl ester], the “Side effects (summary in words)” value with C57/BL6J mice [1] (administered orally or intraperitoneally) is given as “no side effects such as weight gain, hepatotoxicity or cardiotoxicity”. Moreover, in the data set with C57/BL6J mice [1], the GOT is listed as 35 ± 6.2 karmen, the GPT is given as 47 ± 6.5/ karmen, the “Heart Weight” value amounted to 0.117 ± 0.012 g and the “Liver Weight” value was found to be 1.22 ± 0.10 g. The same compound displayed a Weight in the data set on C57/BL6J mice [1] of 37 ± 2.0 g. Moreover, in the data set on ob/ob mice [2] (Intraperitoneal Administration (50 mg/kg/day), once a day for 5 days), the “Extent of Inhibition (%) of blood glucose level” value was 32.0%. For the same compound, the “Extent of Inhibition (%) of blood glucose level” value in the data set on ob/ob mice [2] (Oral Administration (100 mg/kg/day), 14 days) was found to be 23.7%. Moreover, the “Effect in lowering blood glucose and insulin levels (summary in words)” value in the data set with C57/BL6J mice [3] (administered orally or intraperitoneally, Tables 6, 7 and 8) is “excellent effect in lowering both blood glucose and insulin levels”. For the same compound, in the data set on C57/BL6J mice [3] (setting [6]), the “Inhibition Ratio (%), Blood Insulin level” value came to 44.6% and the “Inhibition Ratio (%), Blood glucose level” value is on record as 30.0%. The “Extent of Inhibition (%), Oral Glucose Tolerance Test (Blood Glucose)” value with ob/ob mice [4] came out at 10.2%. In the data set on C57/BL6J mice [5], the “Inhibition Ratio (%), Oral Glucose Tolerance Test (Glucose)” value came to 23.8% and the “Inhibition Ratio (%), Oral Glucose Tolerance Test (Insulin)” value is recorded as 56.2%.
